Measurements reported in PubChem BioAssay (NCI).
Where “and” joins values, the source holds several entries; their conditions need not be identical. Identical values can stand only once.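 Grown in 96-well plates, cells were treated for 48 hours with each compound at five concentrations. Insufficient inhibition: endpoint recorded as highest concentration tested. GI50 = concentration required for 50% inhibition of growth. TGI: total growth inhibition.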

Legend:
Assay in all cases: inhibition of tumour cell growth, NCI panel, 48 h
HCT-15 colon = test system: HCT-15 colon
SN12C renal = test system: SN12C renal
HOP-62 NSCLC = test system: HOP-62 NSCLC
HOP-92 NSCLC = test system: HOP-92 NSCLC
KM20L2 colon = test system: KM20L2 colon
NCI-H522 lung = test system: NCI-H522 lung
SNB-19 CNS = test system: SNB-19 CNS
LXFL 529 NSCLC = test system: LXFL 529 NSCLC
PC-3 prostate = test system: PC-3 prostate
MCF7 breast = test system: MCF7 breast

| Compound | TGI (HCT-15 colon) [µM] | TGI (SN12C renal) [µM] | TGI (HOP-62 NSCLC) | TGI (HOP-92 NSCLC) | TGI (KM20L2 colon) [µM] | TGI (NCI-H522 lung) | TGI (SNB-19 CNS) | TGI (LXFL 529 NSCLC) [µM] | GI50 (SN12C renal) [µM] | GI50 (HOP-62 NSCLC) [µM] | GI50 (HOP-92 NSCLC) [µM] | GI50 (KM20L2 colon) [µM] | GI50 (NCI-H522 lung) [µM] | GI50 (LXFL 529 NSCLC) [µM] | GI50 (SNB-19 CNS) [µM] | GI50 (HCT-15 colon) [µM] | GI50 (PC-3 prostate) [µM] | TGI (PC-3 prostate) [µM] | GI50 (MCF7 breast) [µM] | TGI (MCF7 breast) [µM] |
| --- | --- | --- | --- | --- | --- | --- | --- | --- | --- | --- | --- | --- | --- | --- | --- | --- | --- | --- | --- | --- |
| c1ccc2cc(-c3cc4ccccc4s3)ccc2c1 | > 100 | > 100 | > 100 µM | > 100 µM | > 100 | > 100 µM | > 100 µM |  |  |  |  |  |  |  |  |  |  |  |  |  |
| O=c1/c(=C/c2ccccc2[N+](=O)[O-])sc2nnc(-c3ccco3)n12 | 75.8 | > 100 | 39.2 µM | > 100 µM | > 100 | 32.9 µM | 56.3 µM | 34.5 |  |  |  |  |  |  |  |  |  |  |  |  |
| OC(CC1SCCCS1)c1ccccc1 (configuration not stated) | > 100 | > 100 | > 100 µM |  | > 100 | > 100 µM | > 100 µM | > 100 |  |  |  |  |  |  |  |  |  |  |  |  |
| CC(C)N(C(=O)C12C3C4C1C1C4(C#N)C3C12C#N)C(C)C (configuration not stated) | > 100 | > 100 | > 100 µM | > 100 µM | > 100 |  | > 100 µM | > 100 |  |  |  |  |  |  |  |  |  |  |  |  |
| O=C(CCN(C(=O)O)S(=O)(=O)c1ccc(NC(=O)c2ccccc2)cc1)Nc1ccccc1 | > 75.2 | > 100 | > 100 µM | > 100 µM | > 100 | > 100 µM | > 100 µM | > 100 |  |  |  |  |  |  |  |  |  |  |  |  |
| Cc1c2n(c(=O)[nH]c1=O)C1OC(CO)C(O2)C1O (configuration not stated) | > 100 | > 100 | > 100 µM | > 100 µM | > 100 | > 100 µM | > 100 µM | > 100 |  |  |  |  |  |  |  |  |  |  |  |  |
| CCCCOC(=O)CNC(=O)OC/C=C/C#CC#C/C=C/COC(=O)NCC(=O)OCCCC | > 10 | > 100 | > 100 µM | > 100 µM | > 100 | > 100 µM | > 100 µM | > 100 | > 100 | > 100 | > 100 | > 100 | > 100 | > 100 | > 100 |  |  |  |  |  |
| Nc1nc(Cl)cc(NCCCCCCCCNc2cc(Cl)nc(N)n2)n1 | > 100 | > 100 | > 100 µM | 85.4 µM | > 100 | 37.2 µM | > 100 µM | 27.1 |  |  |  |  |  |  |  |  |  |  |  |  |
| CCC12CCCN(Cc3ccccc3)C1c1c(n(C)c3ccccc13)CC2 (configuration not stated) | > 253 | > 253 | > 253 µM | > 253 µM | > 253 | 220 µM | > 253 µM | > 253 |  |  |  |  |  |  |  |  |  |  |  |  |
| O=C1CCC2(c3ccc(Cl)cc3)Nc3ncccc3N12 (configuration not stated) | > 100 | > 100 | > 100 µM | > 100 µM | > 100 | > 100 µM |  | > 100 |  |  |  |  |  |  |  |  |  |  |  |  |
| COc1ccc2occ(CCC(=O)O)c2c1 | > 100 | > 100 | > 100 µM | > 100 µM | > 100 |  | > 100 µM | > 100 |  |  |  |  |  |  |  |  |  |  |  |  |
| O=C(Nc1ccn(CCO)c(=O)n1)c1ccccc1 | > 100 | > 100 | > 100 µM | > 100 µM | > 100 | > 100 µM |  | > 100 |  |  |  |  |  |  |  |  |  |  |  |  |
| O=[N+]([O-])c1cccc(C2=NN(c3ccccc3)C[N+](c3ccc(Br)cc3)=N2)c1 | > 100 | > 100 | > 100 µM | > 100 µM | > 100 | > 100 µM | > 100 µM | > 100 |  |  |  |  |  |  |  |  |  |  |  |  |
| CC(C)(C)NNC(=O)CCn1[nH]c(=O)c(Cl)c(Cl)c1=O | > 100 | > 100 | > 100 µM |  | > 100 | > 100 µM | > 100 µM | > 100 |  |  |  |  |  |  |  |  |  |  |  |  |
| CCOC(=O)c1cnc2c(ccc3[nH]n(C)nc32)c1=O | > 100 | > 100 | > 100 µM | > 100 µM | > 100 | > 100 µM | > 100 µM | > 100 |  |  |  |  |  |  |  |  |  |  |  |  |
| CCOC(=O)C1=CN(C)C=C(C(=O)OCC)C1c1cc(Br)c(OCC)c(OC)c1 | > 100 | > 100 | > 100 µM | > 100 µM |  | > 100 µM | > 100 µM |  | > 100 | > 100 | 20.5 |  | > 100 |  | > 100 | > 100 | 8.29 | > 100 | 32 | > 100 |
| Cc1cc(Cl)cc(OCCn2cc(F)cn2)c1-c1nc(N)nc2c1CN(C(=O)NCC(C)(F)F)C2 | > 100 | > 100 | > 100 µM | 0.728 µM |  | > 100 µM | > 100 µM |  | 0.0745 | 0.622 | 0.192 |  | 0.0781 |  | 0.477 | 0.386 | 0.0924 | > 100 | 0.0339 | > 100 |
| CO/N=C(/C)c1cccc(Nc2cc(-n3nnc4ccccc43)nc3ccccc23)c1 | > 100 | > 100 | 53.6 µM | 37.4 µM |  | > 100 µM | > 100 µM |  | 32.8 | 19.6 | 3.98 |  | > 100 |  | 30.2 | 31.8 | 8.64 | 61.9 | 31.3 | > 100 |
| COc1cc(OCc2cccc(-c3ccc(C(O)c4nccs4)cc3)c2C)cc(OC)c1C=O (configuration not stated) | 4.4 | 7.07 | 18.3 µM | 8.52 µM |  | 6.35 µM | 13.4 µM |  | 1.98 | 3.88 | 2.19 |  | 1.74 |  | 3.16 | 1.79 | 2.74 | 11.2 | 1.69 | 4.81 |
| CCCCCCCCCCCCCC(=O)OCC(C[As](=O)(O)O)OC(=O)CCCCCCCCCCCCC (configuration not stated) | > 100 | > 100 | > 100 µM | > 100 µM | > 100 | > 100 µM | > 100 µM | > 100 |  |  |  |  |  |  |  |  |  |  |  |  |
| C(=NCCN1CCOCC1)=NC1CCCCC1 | > 100 | > 100 | > 100 µM | > 100 µM |  | > 100 µM | > 100 µM |  |  |  |  |  |  |  |  |  |  | > 100 |  | > 100 |
| CN(C)CCNC(=O)c1cccc2ccc(-c3ccc(O)cc3)nc12 | 14.4 | 13.2 | 7.2 µM and 4.47 µM | 11.3 µM and 11.6 µM | 21.7 | 4.62 µM and 9.18 µM | 15.4 µM and 12 µM |  |  | 1.11 |  |  | 2.26 |  | 2.41 |  |  | 8.86 |  | 5.2 |
